How the values were obtained:
[1] = target: Mitogen-activated protein kinase 8 (Homo sapiens, UniProt P45983); assay: Selectivity interaction (KinomeScan (DiscoverX)) EUB0001049a MAPK8; conditions: at 1 µM
[2] = target: T1, Serine/threonine-protein kinase NLK (Homo sapiens) (UniProt Q9UBE8); assay: Selectivity interaction (KinomeScan (DiscoverX)) EUB0000229b NLK; conditions: at 10 µM
T1 sequence (whole entry): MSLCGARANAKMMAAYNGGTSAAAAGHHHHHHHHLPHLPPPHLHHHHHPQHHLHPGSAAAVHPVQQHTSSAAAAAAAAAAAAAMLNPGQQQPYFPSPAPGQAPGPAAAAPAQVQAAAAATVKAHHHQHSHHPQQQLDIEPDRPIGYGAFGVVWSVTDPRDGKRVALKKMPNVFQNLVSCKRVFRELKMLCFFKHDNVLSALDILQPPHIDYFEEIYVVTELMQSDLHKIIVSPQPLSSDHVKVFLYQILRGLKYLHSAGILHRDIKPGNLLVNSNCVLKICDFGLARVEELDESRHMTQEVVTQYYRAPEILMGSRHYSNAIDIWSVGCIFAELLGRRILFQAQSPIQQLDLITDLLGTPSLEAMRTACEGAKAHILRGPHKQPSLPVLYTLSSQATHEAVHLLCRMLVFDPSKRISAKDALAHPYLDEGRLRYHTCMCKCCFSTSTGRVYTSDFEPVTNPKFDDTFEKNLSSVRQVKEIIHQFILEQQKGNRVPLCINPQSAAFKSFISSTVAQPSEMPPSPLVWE

[3] = target: P2Y purinoceptor 2 (Homo sapiens) (UniProt P41231); assay: Selectivity interaction (Eurofins CEREP Diversity Profile (receptors and ion channels)) EUB0000279b P2RY2; conditions: at 10 µM
Chain of P2Y purinoceptor 2 (Homo sapiens) (P41231 whole entry): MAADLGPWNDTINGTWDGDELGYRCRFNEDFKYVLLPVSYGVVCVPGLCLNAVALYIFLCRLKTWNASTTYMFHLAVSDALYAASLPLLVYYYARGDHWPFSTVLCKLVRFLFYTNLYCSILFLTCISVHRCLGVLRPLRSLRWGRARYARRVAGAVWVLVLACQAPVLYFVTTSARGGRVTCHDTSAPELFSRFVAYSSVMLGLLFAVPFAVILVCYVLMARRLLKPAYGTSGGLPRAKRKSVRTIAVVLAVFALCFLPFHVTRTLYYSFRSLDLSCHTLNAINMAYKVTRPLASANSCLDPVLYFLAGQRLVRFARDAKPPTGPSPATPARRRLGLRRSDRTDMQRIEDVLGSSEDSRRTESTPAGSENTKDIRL

[4] = target: T2, cGMP-dependent protein kinase 2 (Homo sapiens) (UniProt Q13237); assay: Selectivity interaction (KinomeScan (DiscoverX)) EUB0001079a PRKG2; conditions: at 1 µM
T2 sequence (whole entry): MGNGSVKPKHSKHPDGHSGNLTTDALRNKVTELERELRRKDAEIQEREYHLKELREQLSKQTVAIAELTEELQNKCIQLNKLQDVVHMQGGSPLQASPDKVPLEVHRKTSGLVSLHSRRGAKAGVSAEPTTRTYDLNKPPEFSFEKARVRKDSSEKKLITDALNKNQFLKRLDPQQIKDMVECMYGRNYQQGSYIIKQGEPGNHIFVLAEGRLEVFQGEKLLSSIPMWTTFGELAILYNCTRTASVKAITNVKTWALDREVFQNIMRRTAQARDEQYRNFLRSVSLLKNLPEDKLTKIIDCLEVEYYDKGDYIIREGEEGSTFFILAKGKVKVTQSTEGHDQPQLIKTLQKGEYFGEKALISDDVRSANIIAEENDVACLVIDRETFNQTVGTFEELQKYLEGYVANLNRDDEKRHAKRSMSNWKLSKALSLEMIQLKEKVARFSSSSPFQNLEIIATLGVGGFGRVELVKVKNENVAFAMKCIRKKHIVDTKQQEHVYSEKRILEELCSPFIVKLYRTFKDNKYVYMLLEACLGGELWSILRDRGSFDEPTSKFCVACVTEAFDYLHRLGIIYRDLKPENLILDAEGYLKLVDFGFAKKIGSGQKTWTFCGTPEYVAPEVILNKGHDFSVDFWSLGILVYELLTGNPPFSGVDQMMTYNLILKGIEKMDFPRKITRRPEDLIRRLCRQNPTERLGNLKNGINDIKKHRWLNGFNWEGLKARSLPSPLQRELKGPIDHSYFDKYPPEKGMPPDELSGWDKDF

[5] = target: T3, Membrane-associated tyrosine- and threonine-specific cdc2-inhibitory kinase (Homo sapiens) (UniProt Q99640); assay: Selectivity interaction (Kinase panel (DSF assay)) EUB0001558a PKMYT1
T3 sequence (whole entry): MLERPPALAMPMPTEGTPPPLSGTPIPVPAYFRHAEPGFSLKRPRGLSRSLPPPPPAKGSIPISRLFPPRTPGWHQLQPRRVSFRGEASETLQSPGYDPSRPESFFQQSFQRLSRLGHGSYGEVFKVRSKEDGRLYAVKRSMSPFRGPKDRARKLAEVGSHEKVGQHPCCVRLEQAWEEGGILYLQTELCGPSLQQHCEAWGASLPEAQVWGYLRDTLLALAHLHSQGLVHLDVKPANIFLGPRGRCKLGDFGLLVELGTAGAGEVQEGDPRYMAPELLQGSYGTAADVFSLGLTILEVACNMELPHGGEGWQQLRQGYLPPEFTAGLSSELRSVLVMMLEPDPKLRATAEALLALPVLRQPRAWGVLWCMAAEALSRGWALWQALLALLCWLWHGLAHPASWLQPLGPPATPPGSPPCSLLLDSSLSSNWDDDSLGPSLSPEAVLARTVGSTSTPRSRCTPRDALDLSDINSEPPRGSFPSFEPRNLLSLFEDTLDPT

[6] = target: Serine/threonine-protein kinase PAK 4 (Homo sapiens, UniProt O96013); assay: Selectivity interaction (Kinase panel (DSF assay)) EUB0001559a PAK4
[7] = target: Phosphatidylinositol 4-phosphate 3-kinase C2 domain-containing subunit beta (Homo sapiens) (UniProt O00750); assay: Selectivity interaction (KinomeScan (DiscoverX)) EUB0000595a PIK3C2B; conditions: at 10 µM
Chain of Phosphatidylinositol 4-phosphate 3-kinase C2 domain-containing subunit beta (Homo sapiens) (O00750 whole entry, the tested form may be a part): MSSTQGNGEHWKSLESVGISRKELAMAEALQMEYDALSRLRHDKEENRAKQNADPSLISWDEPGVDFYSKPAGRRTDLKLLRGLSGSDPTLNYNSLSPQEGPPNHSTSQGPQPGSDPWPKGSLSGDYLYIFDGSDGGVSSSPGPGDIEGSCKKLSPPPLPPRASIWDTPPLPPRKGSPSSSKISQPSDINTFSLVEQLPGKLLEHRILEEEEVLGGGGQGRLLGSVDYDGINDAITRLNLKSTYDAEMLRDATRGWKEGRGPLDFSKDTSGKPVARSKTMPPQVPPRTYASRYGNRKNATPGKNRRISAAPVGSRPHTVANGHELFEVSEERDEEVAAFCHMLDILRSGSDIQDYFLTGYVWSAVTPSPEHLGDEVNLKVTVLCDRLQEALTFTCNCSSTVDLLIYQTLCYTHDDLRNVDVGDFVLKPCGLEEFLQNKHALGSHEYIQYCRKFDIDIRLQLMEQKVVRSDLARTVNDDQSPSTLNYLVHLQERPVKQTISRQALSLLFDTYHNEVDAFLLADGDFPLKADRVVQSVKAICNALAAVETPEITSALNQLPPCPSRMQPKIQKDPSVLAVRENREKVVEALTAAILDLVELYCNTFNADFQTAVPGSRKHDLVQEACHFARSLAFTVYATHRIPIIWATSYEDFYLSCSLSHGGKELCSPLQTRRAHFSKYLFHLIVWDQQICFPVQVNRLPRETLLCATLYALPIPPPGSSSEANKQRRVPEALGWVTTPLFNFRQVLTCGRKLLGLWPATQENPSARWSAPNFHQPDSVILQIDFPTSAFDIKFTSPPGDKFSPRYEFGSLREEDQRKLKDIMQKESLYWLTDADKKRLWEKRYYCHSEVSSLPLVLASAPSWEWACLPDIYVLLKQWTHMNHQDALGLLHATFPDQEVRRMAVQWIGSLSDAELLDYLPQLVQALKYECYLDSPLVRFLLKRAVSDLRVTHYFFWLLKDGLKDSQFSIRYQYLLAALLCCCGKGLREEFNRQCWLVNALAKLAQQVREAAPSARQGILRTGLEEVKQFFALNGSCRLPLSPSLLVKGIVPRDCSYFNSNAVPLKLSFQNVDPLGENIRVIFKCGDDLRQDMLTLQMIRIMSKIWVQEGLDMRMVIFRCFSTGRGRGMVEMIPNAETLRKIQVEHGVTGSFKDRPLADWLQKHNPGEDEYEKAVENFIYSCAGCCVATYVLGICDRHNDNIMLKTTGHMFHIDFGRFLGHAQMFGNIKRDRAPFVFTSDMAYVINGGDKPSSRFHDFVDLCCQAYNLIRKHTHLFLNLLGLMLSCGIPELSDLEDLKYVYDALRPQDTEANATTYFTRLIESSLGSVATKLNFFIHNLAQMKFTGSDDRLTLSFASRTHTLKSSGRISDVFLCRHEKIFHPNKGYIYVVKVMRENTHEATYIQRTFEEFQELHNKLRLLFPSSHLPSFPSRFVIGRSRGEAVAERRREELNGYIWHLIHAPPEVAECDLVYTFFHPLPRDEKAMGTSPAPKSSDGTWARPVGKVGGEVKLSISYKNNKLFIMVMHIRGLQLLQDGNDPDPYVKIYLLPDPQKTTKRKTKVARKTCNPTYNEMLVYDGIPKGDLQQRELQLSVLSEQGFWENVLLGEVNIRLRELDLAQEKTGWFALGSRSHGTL

[8] = target: Rho-associated protein kinase 2 (Homo sapiens, UniProt O75116); assay: Selectivity interaction (KinomeScan (DiscoverX)) EUB0000595a ROCK2; conditions: at 10 µM
Chain of Rho-associated protein kinase 2 (O75116 whole entry, looked up): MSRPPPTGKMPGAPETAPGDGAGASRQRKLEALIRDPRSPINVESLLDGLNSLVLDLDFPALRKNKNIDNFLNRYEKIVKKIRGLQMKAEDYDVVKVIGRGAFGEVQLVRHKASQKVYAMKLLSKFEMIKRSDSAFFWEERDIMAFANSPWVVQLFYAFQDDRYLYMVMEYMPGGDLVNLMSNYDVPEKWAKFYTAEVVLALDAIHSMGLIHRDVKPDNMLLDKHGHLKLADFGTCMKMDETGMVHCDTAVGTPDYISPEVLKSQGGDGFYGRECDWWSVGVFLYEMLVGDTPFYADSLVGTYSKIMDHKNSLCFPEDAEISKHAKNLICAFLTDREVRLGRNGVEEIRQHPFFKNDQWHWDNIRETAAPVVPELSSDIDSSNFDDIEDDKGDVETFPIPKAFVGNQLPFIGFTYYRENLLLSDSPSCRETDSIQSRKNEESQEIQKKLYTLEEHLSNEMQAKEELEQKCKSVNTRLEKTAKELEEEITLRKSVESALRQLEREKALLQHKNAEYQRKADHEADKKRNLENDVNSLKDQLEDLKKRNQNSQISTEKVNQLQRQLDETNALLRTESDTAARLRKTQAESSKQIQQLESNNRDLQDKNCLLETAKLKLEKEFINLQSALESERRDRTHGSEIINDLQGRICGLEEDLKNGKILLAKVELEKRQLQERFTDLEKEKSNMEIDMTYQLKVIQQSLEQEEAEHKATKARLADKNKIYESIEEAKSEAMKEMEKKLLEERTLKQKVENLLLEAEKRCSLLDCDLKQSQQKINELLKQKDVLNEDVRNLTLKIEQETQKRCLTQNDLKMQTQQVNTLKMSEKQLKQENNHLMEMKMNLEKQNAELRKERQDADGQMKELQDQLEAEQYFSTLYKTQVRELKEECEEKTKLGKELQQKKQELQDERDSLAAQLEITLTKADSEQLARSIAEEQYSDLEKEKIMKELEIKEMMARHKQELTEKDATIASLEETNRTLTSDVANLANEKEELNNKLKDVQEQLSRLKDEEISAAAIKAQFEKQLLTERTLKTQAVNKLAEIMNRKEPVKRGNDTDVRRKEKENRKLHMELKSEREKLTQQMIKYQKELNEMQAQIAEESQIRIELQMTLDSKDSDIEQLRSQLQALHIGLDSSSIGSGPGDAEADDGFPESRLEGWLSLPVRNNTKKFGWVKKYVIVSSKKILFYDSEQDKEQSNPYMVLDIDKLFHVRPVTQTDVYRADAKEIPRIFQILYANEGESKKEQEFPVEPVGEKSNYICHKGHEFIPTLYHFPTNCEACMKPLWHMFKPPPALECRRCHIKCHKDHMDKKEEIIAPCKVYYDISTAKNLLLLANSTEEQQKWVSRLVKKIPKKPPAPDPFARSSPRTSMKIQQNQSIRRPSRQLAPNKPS

[9] = target: Myosin light chain kinase 2, skeletal/cardiac muscle (Homo sapiens) (UniProt Q9H1R3); assay: Selectivity interaction (KinomeScan (DiscoverX)) EUB0000092b MYLK2; conditions: at 10 µM
Chain of Myosin light chain kinase 2, skeletal/cardiac muscle (Homo sapiens) (Q9H1R3 whole entry): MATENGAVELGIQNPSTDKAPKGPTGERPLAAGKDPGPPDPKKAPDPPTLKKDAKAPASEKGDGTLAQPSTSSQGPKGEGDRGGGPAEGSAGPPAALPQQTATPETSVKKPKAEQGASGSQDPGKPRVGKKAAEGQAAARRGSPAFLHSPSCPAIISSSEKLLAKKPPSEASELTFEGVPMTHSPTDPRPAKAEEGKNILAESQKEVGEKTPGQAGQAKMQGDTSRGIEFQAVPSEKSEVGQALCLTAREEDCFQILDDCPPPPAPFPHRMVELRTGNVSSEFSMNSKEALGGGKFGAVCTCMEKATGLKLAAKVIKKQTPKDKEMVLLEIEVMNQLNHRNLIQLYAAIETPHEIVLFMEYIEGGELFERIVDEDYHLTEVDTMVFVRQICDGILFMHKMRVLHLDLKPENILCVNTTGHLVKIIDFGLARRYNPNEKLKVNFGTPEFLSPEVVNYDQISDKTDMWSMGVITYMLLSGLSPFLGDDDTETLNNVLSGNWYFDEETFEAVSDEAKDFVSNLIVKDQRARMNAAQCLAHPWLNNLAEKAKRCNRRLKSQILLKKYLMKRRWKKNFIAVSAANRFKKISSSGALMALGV

[10] = target: MAP kinase-activated protein kinase 2 (Homo sapiens, UniProt P49137); assay: Selectivity interaction (KinomeScan (DiscoverX)) EUB0000045b MAPKAPK2
Chain of MAP kinase-activated protein kinase 2 (P49137 whole entry, looked up): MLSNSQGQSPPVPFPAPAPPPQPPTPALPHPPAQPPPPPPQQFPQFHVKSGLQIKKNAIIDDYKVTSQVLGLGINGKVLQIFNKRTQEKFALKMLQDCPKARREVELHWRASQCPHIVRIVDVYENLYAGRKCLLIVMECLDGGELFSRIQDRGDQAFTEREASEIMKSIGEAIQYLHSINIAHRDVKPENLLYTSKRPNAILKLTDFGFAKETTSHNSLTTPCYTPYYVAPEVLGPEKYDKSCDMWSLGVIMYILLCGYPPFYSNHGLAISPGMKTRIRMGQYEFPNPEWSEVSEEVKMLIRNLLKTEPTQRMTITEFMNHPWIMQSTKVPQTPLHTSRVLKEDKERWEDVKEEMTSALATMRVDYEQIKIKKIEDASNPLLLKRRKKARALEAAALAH

[11] = target: Mitogen-activated protein kinase 11 (Homo sapiens) (UniProt Q15759); assay: Selectivity interaction (KinomeScan (DiscoverX)) EUB0000695a MAPK11; conditions: at 100 nM

Chain of Mitogen-activated protein kinase 8 (P45983 whole entry): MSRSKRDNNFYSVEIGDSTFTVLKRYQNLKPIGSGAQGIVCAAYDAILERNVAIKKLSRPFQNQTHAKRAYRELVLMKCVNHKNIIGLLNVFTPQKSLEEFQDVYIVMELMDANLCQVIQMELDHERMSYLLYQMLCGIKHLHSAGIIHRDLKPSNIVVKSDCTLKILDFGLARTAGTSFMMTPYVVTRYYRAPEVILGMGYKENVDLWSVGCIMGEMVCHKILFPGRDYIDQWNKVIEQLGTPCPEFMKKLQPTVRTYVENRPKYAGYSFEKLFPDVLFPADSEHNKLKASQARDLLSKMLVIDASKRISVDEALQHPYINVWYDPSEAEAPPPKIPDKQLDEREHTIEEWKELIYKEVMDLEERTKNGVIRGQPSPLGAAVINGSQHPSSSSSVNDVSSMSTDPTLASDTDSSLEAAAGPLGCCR

COc1cc(Nc2nc(C)cc(-c3cnn4nc(OC)ccc34)n2)cc(C(F)(F)F)c1
% of control [1]: 88%

COc1cc(N(C)c2ccnc3ccc(C(F)(F)F)cc23)cc(OC)c1OC
% binding [2]: 64%

CC(=O)c1cc(-c2ccccc2OCC2CC2)c2ncccn12
% of control [3]: 84%

Nc1cnc(N2CCc3cc(S(=O)(=O)Nc4c(F)cc(Cl)cc4F)cc(N4CCCC4=O)c32)nc1 [TP-020n]
% of control [4]: 84%

CC(C)(O)[C@H](F)CN1Cc2cc(NC(=O)c3cnn4cccnc34)c(N3CCOCC3)cc2C1=O
dTM [5]: 0.5 K

CN(C(=O)c1cnn2cccnc12)c1cc2c(cc1N1CCOCC1)C(=O)N(C[C@@H](F)C(C)(C)O)C2
dTM [6]: 0.4 K

COCC(=O)NC/C=C/c1ccc2ncnc(Nc3ccc(Oc4ccc(C)nc4)c(C)c3)c2c1 [CP-724714]
% of control [7]: 88% | % of control [8]: 100%

CCC(=O)N1CCN(c2ccc(-n3c(=O)ccc4cnc5ccc(-c6cnc7ccccc7c6)cc5c43)cc2C(F)(F)F)CC1
% of control [9]: 40%

C=CC(=O)Nc1cc(-n2c(=O)ccc3cnc4ccc(-c5ccc(NS(C)(=O)=O)cc5)cc4c32)ccc1C
% of control ([10]; at 1 µM): 100% | % of control ([10]; at 10 µM): 100%

Cc1cc(F)c(C(=O)Nc2cccc(-c3nncn3C(C)C)n2)cc1-n1cnc(C2CC2)c1
% of control [11]: 100%

Source: ChEMBL document CHEMBL5465560, “Selectivity Literature for EUbOPEN Chemogenomic Library” (2024)
